Measurements from the NIST ThermoML archive (doi:10.1021/acs.jced.7b01006).

Assay: xn = mol fraction of the nth substance listed
Settings: 100 kPa, Liquid; for electrical conductivity: Alternating current cell with electrodes; for viscosity: Falling or rolling sphere viscometry; for mass density: Vibrating tube method

CCC[n+]1ccn(C)c1C.N#C[S-] [1,2-dimethyl-3-propylimidazolium thiocyanate] + CC#N
Settings | electrical conductivity, 298.15 K [S/m] | electrical conductivity, 303.15 K [S/m] | mass density, 298.15 K [kg/m3] | mass density, 303.15 K [kg/m3] | viscosity, 298.15 K [mPa·s] | viscosity, 303.15 K [mPa·s]
x1 = 0.1002 | 5.83 | 6.16 | 876.09 | 871.55 | 3.864 | 2.697
x1 = 0.2002 | 5.05 | 5.43 | 941.45 | 937.88 | 8.717 | 6.468
x1 = 0.2998 | 4.27 | 4.71 | 988.89 | 985.24 | 16.33 | 12.26
x1 = 0.4001 | 2.98 | 3.36 | 1022.71 | 1019.65 | 27.66 | 20.36
x1 = 0.4997 | 1.72 | 2.01 | 1046.39 | 1043.41 | 42.09 | 30.78
x1 = 0.5998 | 1.4 | 1.67 | 1061.68 | 1058.77 | 60.63 | 44.13
x1 = 0.7002 | 1.08 | 1.32 | 1072.2 | 1069.41 | 82.01 | 59.49
x1 = 0.7999 | 0.789 | 0.973 | 1080.57 | 1077.79 | 105 | 76.35
x1 = 0.8999 | 0.589 | 0.72 | 1088.08 | 1085.29 | 128.8 | 93.37
x1 = 1 | 0.459 | 0.583 | 1093.67 | 1090.61 | 151.9 | 110.1
